According to PMC10387993, “New pyrimidine-N-β-D-glucosides: synthesis, biological evaluation, and molecular docking investigations” (Turkish Journal of Chemistry, 2023):
Values after ≈ are worked out from the molar mass of the structure shown. Where two headings read alike, the source gives them in different places.

Columns and labels:
Assay type in all cases: cell-based
[1] = LDH cytotoxic activity assay, C6; details: rat, C6 glioma cells
Method in brief: (§1)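 Cells grown in DMEM or RPMI 1640 with 10% FBS were seeded at about 5 × 10^3 per well in triplicate. They were exposed to 25, 50, 75 and 100 μg/mL compound for 24 h at 37 °C, 5% CO2, and LDH release was measured by absorbance at 492–630 nm.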

[2] = LDH cytotoxic activity assay, HT29; details: human, HT29 cells
Method in brief: as §1

[3] = LDH cytotoxic activity assay, HeLa; details: human, HeLa cells
Method in brief: as §1

normal FL cells = test: cells; details: FL normal cells, MTT
Method in brief: (§2)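 Seed ~1 × 10^4 cells/well; final 200 μL. Add MTT in phenol-red-free RPMI 1640, 4 h. Solubilise formazan in DMSO + Sorenson's buffer, 30 min RT. Read 560/690 nm. ≥3 repeats.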

in vitro = details: human, LC50
Method in brief: as §2

A549 = test: cells; details: Homo sapiens
Method in brief: as §2

HT29 = test: cells; details: Homo sapiens
Method in brief: as §2

Hep3B = test: cells; details: Homo sapiens
Method in brief: as §2

HeLa = test: cells; details: Homo sapiens
Method in brief: as §2

C6 (Rat brain glioma) = test: cells; details: Rattus norvegicus
Method in brief: as §2

MCF7 = test: cells; details: Homo sapiens
Method in brief: as §2

[4] = test system: S. aureus MSSA ATCC 29213; test: Microdilution MIC assay; details: S. aureus MSSA ATCC 29213, 24 h at 35 °C
Method in brief: (§3)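 Read-out is visual: absence of turbidity after 24 h at 35 °C defines the MIC, the lowest such concentration in a microwell dilution series.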

E. coli ATCC 25922 = test: Microdilution MIC assay; details: Escherichia coli, ATCC25922; E. coli ATCC 25922, 24 h at 35 °C
Method in brief: as §3

S. mutans ATCC 35668 = test: Microdilution MIC assay; details: S. mutans ATCC 35668, 24 h at 35 °C
Method in brief: as §3

[5] = test system: P. aeruginosa AGME ATCC 27853; test: Microdilution MIC assay; details: Pseudomonas aeruginosa, ATCC27853; P. aeruginosa AGME ATCC 27853, 24 h at 35 °C
Method in brief: as §3

E. coli ESBL ATCC 35218 = test: Microdilution MIC assay; details: Escherichia coli, ATCC35218; E. coli ESBL ATCC 35218, 24 h at 35 °C
Method in brief: as §3

[6] = test system: S. aureus MRSA ATCC 46300; test: Microdilution MIC assay; details: Staphylococcus aureus; S. aureus MRSA ATCC 46300, 24 h at 35 °C; read-out: MIC
Method in brief: as §3

- GI50 (A549; A549, MTT): > 500 µg/mL
- IC50 (A549; A549, MTT, read-out: IC50): > 500 µg/mL
- GI50 (HT29; HT-29, HT29, MTT): 2.94 µg/mL (≈ 4.96 µM)
- IC50 (HT29; HT-29, HT29, MTT, read-out: IC50): > 500 µg/mL
- GI50 (Hep3B; MTT): 2.56 µg/mL (≈ 4.32 µM)
- IC50 (Hep3B; MTT, read-out: IC50): > 500 µg/mL
- GI50 (HeLa; MTT): 4.48 µg/mL (≈ 7.56 µM)
- IC50 (HeLa; MTT, read-out: IC50): 60.4 µg/mL (≈ 102 µM)
- GI50 (C6 (Rat brain glioma); C6, MTT): 1.97 µg/mL (≈ 3.32 µM)
- IC50 (C6 (Rat brain glioma); C6, MTT, read-out: IC50): 7.55 µg/mL (≈ 12.7 µM)
- GI50 (MCF7; MCF7, MTT): 1.84 µg/mL (≈ 3.1 µM)
- IC50 (MCF7; MCF7, MTT, read-out: IC50): 297 µg/mL (≈ 500 µM)
- MIC [4]: 125 µg/mL (≈ 211 µM)
- MIC ([4]; Staphylococcus aureus, 24 h, read-out: MIC): 62.5 to 125 µg/mL (≈ 105 to 211 µM)
- MIC (E. coli ATCC 25922): > 1000 µg/mL
- MIC (S. mutans ATCC 35668): 125 µg/mL (≈ 211 µM)
- MIC (S. mutans ATCC 35668; Streptococcus mutans, ATCC35668, 24 h, read-out: MIC): 62.5 to 125 µg/mL (≈ 105 to 211 µM)
- MIC [5]: > 1000 µg/mL
- MIC (E. coli ESBL ATCC 35218): > 1000 µg/mL
- MIC [6]: 500 µg/mL (≈ 844 µM)
SMILES: CC(=O)OC[C@H]1O[C@@H](Nc2nc(-c3cccc(C)c3)cc(-c3ccccn3)n2)[C@H](OC(C)=O)[C@@H](OC(C)=O)[C@@H]1OC(C)=O [Compound 13, 2,3,4,6-tetra-O-acetyl-N-[4-(3-methylphenyl)-6-pyridin-2-ylpyrimidin-2-yl]-β-D-glucopyranosylamine]
- cytotoxicity at 24 h, 25 μg/mL ([1]; C6, 25 μg/mL): 15%
- cytotoxicity at 24 h, 50 μg/mL ([1]; C6, 50 μg/mL): 51.2%
- cytotoxicity at 24 h, 75 μg/mL ([1]; C6, 75 μg/mL): 77.1%
- cytotoxicity at 24 h, 100 μg/mL ([1]; C6, 100 μg/mL): 98.3%
- cytotoxicity at 24 h, 25 μg/mL ([2]; HT29, 25 μg/mL): 31.7%
- cytotoxicity at 24 h, 50 μg/mL ([2]; HT29, 50 μg/mL): 45.5%
- cytotoxicity at 24 h, 75 μg/mL ([2]; HT29, 75 μg/mL): 66.4%
- cytotoxicity at 24 h, 100 μg/mL ([2]; HT29, 100 μg/mL): 79.2%
- cytotoxicity at 24 h, 25 μg/mL ([3]; 25 μg/mL): 18.1%
- cytotoxicity at 24 h, 50 μg/mL ([3]; 50 μg/mL): 28%
- cytotoxicity at 24 h, 75 μg/mL ([3]; 75 μg/mL): 42.8%
- cytotoxicity at 24 h, 100 μg/mL ([3]; 100 μg/mL): 50.9%
- GI50 (normal FL cells): 1.63 µg/mL (≈ 2.75 µM)
- IC50 (normal FL cells; read-out: IC50): 18.2 µg/mL (≈ 30.7 µM)
- IC (total growth inhibition) (normal FL cells; read-out: TGI): 19.1 µg/mL
- LC50 (concentration causing 50% net cell loss) (in vitro): > 500 µg/mL
- LC50 (concentration causing 50% net cell loss) (A549; A549, read-out: LC50): > 500 µg/mL
- IC (total growth inhibition) (A549; A549, MTT, read-out: TGI): > 500 µg/mL
- LC50 (concentration giving 50% net cell loss relative to time zero) (HT29; HT-29, read-out: LC50): > 500 µg/mL
- IC (total growth inhibition) (HT29; HT-29, HT29, MTT, read-out: TGI): > 500 µg/mL
- IC (total growth inhibition) (Hep3B; MTT, read-out: TGI): > 500 µg/mL
- LC50 (concentration causing 50% net cell loss relative to time zero) (Hep3B; read-out: LC50): > 500 µg/mL
- IC (total growth inhibition) (HeLa; MTT, read-out: TGI): 17.3 µg/mL
- LC50 (concentration causing 50% net cell loss) (HeLa; read-out: LC50): 224 µg/mL (≈ 378 µM)
- LC50 (concentration giving 50% net cell loss relative to time zero) (C6 (Rat brain glioma); read-out: LC50): 33.9 µg/mL (≈ 57.2 µM)
- IC (total growth inhibition) (C6 (Rat brain glioma); C6, MTT, read-out: TGI): 4.7 µg/mL
- LC50 (concentration causing 50% net cell loss relative to time zero) (MCF7; MCF7, read-out: LC50): > 500 µg/mL
- IC (total growth inhibition) (MCF7; MCF7, MTT, read-out: TGI): 397 µg/mL
